The results in this text go back to patent US20260262643A1, “HERBICIDAL BENZOXAZINES” (FMC CORPORATION, priority 2022, published 2026).

For test [1], the system named is blackgrass. Briefly: Test A preemergence. The format is in vivo, Alopecurus myosuroides. As to conditions: 1000 g ai/ha, 0 to 100 scale (0 no effect, 100 complete control), 10 days; for pest or weed control at 1000 g/ha: Alopecurus myosuroides, pre-emergence, 240 h, read-out: Plant response rating, Blackgrass. The source says:
(§1) Seeds of plant species selected from barnyardgrass (Echinochloa crusgalli), blackgrass (Alopecurus myosuroides), corn (Zea mays), foxtail, giant (giant foxtail, Setaria faberi), goosegrass (Eleusine indica), kochia (Bassia scoparia), oat, wild (wild oat, Avena fatua), pigweed, palmer (palmer amaranth, palmer pigweed, Amaranthus palmeri), Pigweed, Redroot (redroot pigweed, Amaranthus retroflexus), ragweed (common ragweed, Ambrosia artemisiifolia), ryegrass, Italian (italian ryegrass, Lolium multiflorum), soybean (Glycine max), and wheat (Triticum aestivum) were planted into a blend of loam soil and sand and treated preemergence with a directed soil spray using test chemicals formulated in a non-phytotoxic solvent mixture which included a surfactant. At the same time, plants selected from these crops and weed species and also galium (catchweed bedstraw, Galium aparine) and horseweed (Erigeron canadensis) were planted in pots containing the same blend of loam soil and sand and treated with postemergence applications of test chemicals formulated in the same manner. Plants ranged in height from 2 to 10 cm and were in the one- to two-leaf stage for the postemergence treatment. Treated plants and untreated controls were maintained in a greenhouse for 10 days, after which time all treated plants were compared to untreated controls and visually evaluated for injury. Plant response ratings, summarized in Table A, are based on a 0 to 100 scale where 0 is no effect and 100 is complete control. A dash (-) response means no test result.

Test [2] has as its system foxtail, giant. The test is described as follows: Test A preemergence. The format is in vivo, Setaria faberi. As to conditions: 1000 g ai/ha, 0 to 100 scale (0 no effect, 100 complete control), 10 days; for pest or weed control at 1000 g/ha: Setaria faberi, pre-emergence, 240 h, read-out: Plant response rating, Foxtail, Giant.
Excerpt: as §1

Test [3] deals with goosegrass. The test is described as follows: Test A preemergence. The class given is in vivo, Eleusine indica. As to conditions: 1000 g ai/ha, 0 to 100 scale (0 no effect, 100 complete control), 10 days; for pest or weed control at 1000 g/ha: Eleusine indica, pre-emergence, 240 h, read-out: Plant response rating, Goosegrass.
Excerpt: as §1

Test [4] concerns kochia. Briefly: Test A preemergence. The class given is in vivo, Bassia scoparia. As to conditions: 1000 g ai/ha, 0 to 100 scale (0 no effect, 100 complete control), 10 days; for pest or weed control at 1000 g/ha: Bassia scoparia, pre-emergence, 240 h, read-out: Plant response rating, Kochia.
Excerpt: as §1

Test [5] deals with pigweed, palmer. The test is described as follows: Test A preemergence. The format is in vivo, Amaranthus palmeri. As to conditions: 1000 g ai/ha, 0 to 100 scale (0 no effect, 100 complete control), 10 days; for pest or weed control at 1000 g/ha: Amaranthus palmeri, pre-emergence, 240 h, read-out: Plant response rating, Pigweed, Palmer.
Excerpt: as §1

Test [6] concerns ragweed. The test is described as follows: Test A preemergence. As to conditions: 1000 g ai/ha, 0 to 100 scale (0 no effect, 100 complete control), 10 days; for pest or weed control at 1000 g/ha: Ambrosia artemisiifolia, pre-emergence, 240 h, read-out: Plant response rating, Ragweed. The format is in vivo, Ambrosia artemisiifolia.
Excerpt: as §1

Test [7] has as its system ryegrass, Italian. The test is described as follows: Test A preemergence. The format is in vivo, Lolium multiflorum. As to conditions: 1000 g ai/ha, 0 to 100 scale (0 no effect, 100 complete control), 10 days; for pest or weed control at 1000 g/ha: Lolium multiflorum, pre-emergence, 240 h, read-out: Plant response rating, Ryegrass, Italian.
Excerpt: as §1

The subject of test [8] is blackgrass. The test is described as follows: Test A postemergence. The format is in vivo, Alopecurus myosuroides. Conditions: 1000 g ai/ha, Postemergence, 0 to 100 scale; for pest or weed control at 1000 g/ha: Alopecurus myosuroides, post-emergence, 240 h, read-out: Plant response rating, Blackgrass.
Excerpt: as §1

Test [9] concerns foxtail, giant. The test is described as follows: Test A postemergence. The format is in vivo, Setaria faberi. As to conditions: 1000 g ai/ha, Postemergence, 0 to 100 scale; for pest or weed control at 1000 g/ha: Setaria faberi, post-emergence, 240 h, read-out: Plant response rating, Foxtail, Giant.
Excerpt: as §1

For test [10], the system named is goosegrass. The test is described as follows: Test A postemergence. The class given is in vivo, Eleusine indica. As to conditions: 1000 g ai/ha, Postemergence, 0 to 100 scale; for pest or weed control at 1000 g/ha: Eleusine indica, post-emergence, 240 h, read-out: Plant response rating, Goosegrass.
Excerpt: as §1

The test system of test [11] is kochia. The test is described as follows: Test A postemergence. The format is in vivo, Bassia scoparia. As to conditions: 1000 g ai/ha, Postemergence, 0 to 100 scale; for pest or weed control at 1000 g/ha: Bassia scoparia, post-emergence, 240 h, read-out: Plant response rating, Kochia.
Excerpt: as §1

Test [12] deals with pigweed, palmer. Briefly: Test A postemergence. The class given is in vivo, Amaranthus palmeri. Conditions: 1000 g ai/ha, Postemergence, 0 to 100 scale; for pest or weed control at 1000 g/ha: Amaranthus palmeri, post-emergence, 240 h, read-out: Plant response rating, Pigweed, Palmer.
Excerpt: as §1

Test [13] deals with ragweed. Briefly: Test A postemergence. Conditions: 1000 g ai/ha, Postemergence, 0 to 100 scale; for pest or weed control at 1000 g/ha: Ambrosia artemisiifolia, post-emergence, 240 h, read-out: Plant response rating, Ragweed. The format is in vivo, Ambrosia artemisiifolia.
Excerpt: as §1

Test [14] concerns ryegrass, Italian. The test is described as follows: Test A postemergence. The format is in vivo, Lolium multiflorum. As to conditions: 1000 g ai/ha, Postemergence, 0 to 100 scale; for pest or weed control at 1000 g/ha: Lolium multiflorum, post-emergence, 240 h, read-out: Plant response rating, Ryegrass, Italian.
Excerpt: as §1

Test [15] has as its system galium. Briefly: Test A postemergence. The format is in vivo, Galium aparine. Conditions: 1000 g ai/ha, Postemergence, 0 to 100 scale; for pest or weed control at 1000 g/ha: Galium, post-emergence, 240 h, read-out: Plant response rating, Galium.
Excerpt: as §1

The test system of test [16] is horseweed. The test is described as follows: Test A postemergence. The format is in vivo, Erigeron canadensis. As to conditions: 1000 g ai/ha, Postemergence, 0 to 100 scale; for pest or weed control at 1000 g/ha: Erigeron canadensis, post-emergence, 240 h, read-out: Plant response rating, Horseweed.
Excerpt: as §1

Test [17] relates to barnyardgrass. The test is described as follows: Test B flooded paddy test. The format is in vivo, Echinochloa crus-galli. As to conditions: 250 g ai/ha, Flood, 13 days, 0 to 100 scale (0 no effect, 100 complete control); for pest or weed control at 250 g/ha: Echinochloa crus-galli, 312 h, read-out: Plant response rating, Barnyardgrass. The procedure:
(§2) Plant species in the flooded paddy test selected from barnyardgrass (Echinochloa crus-galli), ducksalad (Heteranthera limosa), rice (Oryza sativa), and sedge, umbrella (small-flower umbrella sedge, Cyperus difformis) were grown to the 2-leaf stage for testing. At time of treatment, test pots were flooded to 3 cm above the soil surface, treated by application of test compounds directly to the paddy water, and then maintained at that water depth for the duration of the test. Treated plants and controls were maintained in a greenhouse for 13 days, after which time all species were compared to controls and visually evaluated. Plant response ratings, summarized in Table B, are based on a scale of 0 to 100 where 0 is no effect and 100 is complete control. A dash (-) response means no test result.

Test [18] has as its system ducksalad. Briefly: Test B flooded paddy test. The class given is in vivo, Heteranthera limosa. As to conditions: 250 g ai/ha, Flood, 13 days, 0 to 100 scale (0 no effect, 100 complete control); for pest or weed control at 250 g/ha: Heteranthera limosa, 312 h, read-out: Plant response rating, Ducksalad. The procedure: as §2
Test [19] has as its system rice. Briefly: Test B flooded paddy test. Conditions: 250 g ai/ha, Flood, 13 days, 0 to 100 scale (0 no effect, 100 complete control); for plant injury at 250 g/ha: Oryza sativa, 312 h, read-out: Plant response rating, Rice. The format is in vivo, Oryza sativa. The method, then: as §2
Test [20] has as its system sedge, umbrella. The test is described as follows: Test B flooded paddy test. The format is in vivo, Cyperus difformis. Conditions: 250 g ai/ha, Flood, 13 days, 0 to 100 scale (0 no effect, 100 complete control); for pest or weed control at 250 g/ha: Cyperus difformis, 312 h, read-out: Plant response rating, Sedge, Umbrella. The method, then:
as §2

Consider `Cc1cc(C(=O)N2CC(C)Oc3c(Cl)cccc32)cc(-n2cncn2)c1` (centres unmarked) [Compound 32], for which the “Plant response rating, Blackgrass” value in test [1] and in test [8] was 80 each time. The “Plant response rating, Foxtail, Giant” value in test [2] and in [9] was 100 each time. Further, the “Plant response rating, Goosegrass” value in test [3] is given as 100; in [10], 80. Besides, the “Plant response rating, Kochia” value is given as 30 in [4] and 60 in test [11]. Further, the “Plant response rating, Pigweed, Palmer” value in test [5] is given as 90; in [12], 70. Besides, the “Plant response rating, Ragweed” value came to 0 in [6] and 20 in test [13]. Also, the “Plant response rating, Ryegrass, Italian” value in test [7] came to 100; in [14], 90. Moreover, the “Plant response rating, Galium” value in test [15] is 100. Moreover, the “Plant response rating, Horseweed” value in test [16] is listed as 0. In addition, in [17], the “Plant response rating, Barnyardgrass” value turned out to be 0. In test [18], the “Plant response rating, Ducksalad” value turned out to be 0. Also, in test [19], the “Plant response rating, Rice” value is listed as 0. In addition, the “Plant response rating, Sedge, Umbrella” value in test [20] came to 0.
Regarding `COCC1CN(C(=O)c2ccnc(-n3cncn3)c2)c2cccc(Cl)c2O1` (centres unmarked) [Compound 35, [8-Chloro-2,3-dihydro-2-(methoxymethyl)-4H-1,4-benzoxazin-4-yl][2-(1H-1,2,4-triazol-1-yl)-4-pyridinyl]methanone], the pest or weed control at 1000 g/ha in [1] turned out to be 70%; in test [2], 100%; in test [3] it was 90%; in test [4], 50%; in test [5], 90%; in test [6] it was 20%. Moreover, the pest or weed control at 1000 g/ha in test [7] amounted to 90%; in test [8], 60%; in test [9] it was 90%; in test [10] it was 50%; in test [11], 50%; in [12], 50%. The pest or weed control at 1000 g/ha in test [13] is 50%; in test [14], 80%; in test [15], 80%; in [16] it was 20%. For the same compound, the figures for the pest or weed control at 250 g/ha in test [17], in [18] and in test [20] were 0%, 30% and 40%, respectively. Besides, in test [19], the plant injury at 250 g/ha came out at 0%.
For `Cc1cccc2c1O[C@H](C(F)(F)F)CN2C(=O)c1cccc(-n2cncn2)c1` (single isomer, unassigned) [Compound 58], the pest or weed control at 1000 g/ha worked out at 40% in [1]; 80% in test [2]; 90% in test [3]; 20% in test [4]; 80% in test [5]; 0% in test [6]. Further, the pest or weed control at 1000 g/ha in test [7] stood at 90%; in test [8] it was 20%; in test [9], 30%; in [10], 20%; in [11], 60%; in test [12], 20%. The pest or weed control at 1000 g/ha in test [13] was 10%; in test [14], 30%; in [15] it was 60%; in test [16] it was 0%. Besides, the pest or weed control at 250 g/ha in test [17], in test [18] and in test [20] was 0% throughout. Also, the plant injury at 250 g/ha in [19] turned out to be 0%.
On to `Cc1cccc2c1O[C@@H](C(F)(F)F)CN2C(=O)c1cccc(-n2cncn2)c1` (single isomer, unassigned) [Compound 68], for which the pest or weed control at 1000 g/ha in [1] worked out at 80%; in [2] it was 100%; in [3], 100%; in test [4] it was 90%; in [5], 100%; in test [6], 70%. Further, the pest or weed control at 1000 g/ha was 100% in test [7]; 80% in [8]; 90% in [9]; 90% in test [10]; 80% in test [11]; 50% in test [12]. For the same compound, the pest or weed control at 1000 g/ha in test [13] was determined as 60%; in [14] it was 90%; in test [15], 100%; in test [16] it was 0%. In addition, the pest or weed control at 250 g/ha in [17] turned out to be 0%; in test [18], 55%; in test [20] it was 65%. Also, the plant injury at 250 g/ha in test [19] amounted to 0%.
